Measured values reported in PMC9233675, “Ru(II) photocages enable precise control over enzyme activity with red light” (Nature Communications, 2022).
Several values for one entry are separate records, joined by “and”; a condition that tells them apart may be missing. Identical values can stand only once. Like-named read-outs stand apart in the source and are kept apart here.

Columns and labels:
CYP19A1 [1] = system: CYP19A1; set-up: method as in PMID 9152599; conditions: cited from earlier work
CYP19A1 [2] = biological target: T1, CYP19A1 (Homo sapiens, UniProt P11511); assay: In cell activity assay for CYP19A1 (dibenzylfluorescein conversion, HEK293 T-Rex cells); type: cell-based; conditions: concentrations up to 30 μM, in the dark and following irradiation to form 7
T1 sequence (P11511 1-503): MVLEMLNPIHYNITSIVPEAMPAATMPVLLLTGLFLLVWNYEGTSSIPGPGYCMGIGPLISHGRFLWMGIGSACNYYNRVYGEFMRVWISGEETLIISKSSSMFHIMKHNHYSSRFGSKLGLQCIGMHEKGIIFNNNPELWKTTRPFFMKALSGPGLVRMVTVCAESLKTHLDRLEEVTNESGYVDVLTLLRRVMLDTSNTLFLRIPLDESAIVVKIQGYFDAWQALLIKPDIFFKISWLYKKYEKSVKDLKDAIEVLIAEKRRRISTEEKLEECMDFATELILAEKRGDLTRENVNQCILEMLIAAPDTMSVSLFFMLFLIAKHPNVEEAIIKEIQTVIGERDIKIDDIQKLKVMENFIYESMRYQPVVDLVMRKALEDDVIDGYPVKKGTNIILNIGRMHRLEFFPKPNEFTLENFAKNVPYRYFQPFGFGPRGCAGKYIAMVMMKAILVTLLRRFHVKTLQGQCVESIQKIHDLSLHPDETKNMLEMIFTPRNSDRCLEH
Protocol: Thus, the activity against CYP19A1 was evaluated using a recently developed in-cell fluorometric assay.
REE or DBF was added as described above.

HEK293 T-Rex cell line = assay: Cellular viability (resazurin to resorufin, 72 h); type: cell-based, human; conditions: Supplementary Fig. 24d
Protocol: The cells were >70% viable at 72 h with 10 μM compound, as quantified by metabolically active cells determined by the conversion of resazurin to resorufin (Supplementary Figs. 18–20).
The parental HEK T-Rex cell line was maintained as above, in the absence of Zeocin. Compounds were serially diluted in media, and the cells were dosed from 0–30 μM compound, and then incubated at 37 °C (n = 3). […] The cells were incubated with the compound in the dark for 30 min prior to light exposure, using the same parameters as in the enzyme activity assay, and then treated as above.

[3] = Stability of complexes at 37 °C in the dark (HPLC, UV/Vis); type: physicochemical
Protocol: The stability of each complex was assessed over 24 h under aqueous conditions at 37 °C (Supplementary Figs. 12–15). […] Given the potency of the caged inhibitor, thermal stability is of critical importance, making complex 6 the preferred photocaged candidate.
Opti-MEM with 2% fetal bovine serum (right) at 37 °C in the dark over the course of 0 (blue line) to 24 h (black dashed line). Compounds were tested in triplicate (n = 3), the data for one replicate are presented. Complexes 4 and 5 slowly degraded in the experiment condition (see HPLC traces, Figures S13–14). The decrease in absorbance for complex 6 is explained by the slow aggregation of the compound in the 96-well plate.
(1 picture or pasted object on this page, not shown here)
Supplementary Figure 13. a HPLC chromatogram analysis of stability of 4 (50 µM in di-H2O) before (black dashed line, purity > 92 % ) and after incubation at 37 °C for 24 hours (red line). At 24 hours, 43 % of 4 was […]
Supplementary Figure 14. HPLC chromatogram analysis of stability of 5 (50 µM in di-H2O) before (black dashed line, purity > 97 %) and after incubation at 37 °C for 24 hours (red line). At 24 hours, 50 % of 5 was observed […]
Supplementary Figure 15. HPLC chromatogram analysis of stability of 6 (40 µM in di-H O : MeCN mixture (4:1), […]
MeCN was added to reduce the aggregation) before (black dashed line, purity > 99.5 %) and after incubation at 37 °C for 24 hours. At 24 hours, less than 2 % degradation was observed (calculated by area, detection wavelength = […]
Supplementary Figure 16. HPLC chromatogram analysis of stability of 6 (40 µM) in 5 % DMSO / di-H2O with a 100 μM GSH, b 100 μM imidazole and c acidic condition (pH = 1) after incubation at 37 °C for 72 hours. Less than […]
detection wavelength = 280 nm). […]
imidazole and c acidic condition (pH = 1) after incubation at 37 °C for 72 hours. d At 72 hours less than 7 % degradation was observed by HPLC at pH = 1 (calculated by area, detection wavelength = 280 nm). Compounds were tested in triplicate (n = 3), the data for one replicate are presented.

[4] = Irradiation-induced 1O2 production (Singlet Oxygen Sensor Green assay); type: physicochemical; conditions: sheet S27; triplicate columns; DMSO control about 0.9
Text: Some Ru(II) complexes can generate singlet oxygen when photoexcited, a feature that has been applied to the selective photoinactivation of proteins. In this approach, the Ru(II) system is conjugated to a peptide that is a specific ligand for the protein target; binding of the peptide to the protein ensures close proximity of the Ru(II) center and thus, upon photoexcitation, the generation of a high local concentration of singlet oxygen. […] As very little of this reactive oxygen species was generated, inactivation of the CYP enzymes by this process appears unlikely.
Supplementary Figure 27. Determination of irradiation-induced 1O2 production with 660 nm light (1 hr = 58.7 J/cm2)
using the Singlet Oxygen Sensor Green assay. […]

[5] = Stability of compounds in human liver microsomes; conditions: for Remaining, % (T=60min): human, liver microsomes
human isoform of CYP51 = biological target: human isoform of CYP51; set-up: method as in PMID 23826084; conditions: cited from earlier work
CYP3A4 = system: CYP3A4; set-up: method as in PMID 23018626; conditions: cited from earlier work
fungal CYP51 = conditions: read-out: Kd fungal CYP51; cited from earlier work
[6] = Stability of compounds in rat liver microsomes
[7] = Stability of compounds in mouse liver microsomes
[8] = human, microsomes
[9] = rat, microsomes
[10] = mouse, microsomes
[11] = set-up: method as in Scifinder; conditions: ref Scifinder; cited from earlier work

CC(C)(C#N)c1cc(Cn2cncn2)cc(C(C)(C)C#N)c1 [Anastrozole, anastrozole]
selectivity for CYP19A1 over liver CYPs (CYP19A1 [1]): at least 500 fold

O=C([O-])c1cc2[n+](c3ccccc13)[Ru-4]13([n+]4ccccc4)([n+]4ccccc4-c4cccc([n+]41)-c1cccc[n+]13)[n+]1c-2cc(C(=O)[O-])c2ccccc21 [Compound 8, [Ru(tpy)(bca)(pyridine)]]
impact on any CYP (CYP19A1) (CYP19A1 [2]): no impact
effect on cell health (HEK293 T-Rex cell line): no effect
degradation at pH = 1 ([3]; 5 % DMSO / di-H2O, acidic condition (pH = 1), 37 °C, 72 hours): less than 7%
degradation over 72 h ([3]; Supplementary Fig. 17): < 7%
irradiation-induced 1O2 production (Singlet Oxygen Sensor Green signal, relative) [4]: 1.034 and 0.94 and 1.135

O=C(O)Cc1ccccc1Nc1c(Cl)cccc1Cl [Diclofenac, reference compound]
Remaining, % (T=60min) [5]: 0.0%

CCCCCCOC(C)c1c(C)c2cc3nc(c4c5[nH]c(cc6nc(cc1[nH]2)C(C)=C6CC)c(C)c5C(=O)C4)[C@@H](CCC(=O)O)[C@@H]3C (some centres unmarked) [HPPH, reference compound]
irradiation-induced 1O2 production (Singlet Oxygen Sensor Green signal, relative) [4]: 4.8266 and 4.787 and 4.883

CC(=O)N1CCN(c2ccc(OCC3COC(Cn4ccnc4)(c4ccc(Cl)cc4Cl)O3)cc2)CC1 (centres unmarked) [Ketoconazole, ketoconazole]
Kd (human isoform of CYP51): 42 nM
Kd (fungal CYP51): 27 nM

[Ru+2].c1ccc(-c2ccccn2)nc1.c1ccc(-c2ccccn2)nc1.c1ccc(-c2ccccn2)nc1 [Ru(bpy)3, reference compound]
irradiation-induced 1O2 production (Singlet Oxygen Sensor Green signal, relative) [4]: 4.994 and 4.917 and 5.133

C[C@]12CC[C@H]3[C@@H](CCC4=CC(=O)CC[C@@]43C)[C@@H]1CC[C@@H]2O [Testosterone, reference compound]
Remaining, % (NCF=60min) ([6]; rat liver microsomes, no co-factor (no NADPH)): 86.5%
Remaining, % (T=60min) ([6]; rat, liver microsomes): 0.8%
Remaining, % (NCF=60min) ([5]; human liver microsomes, no co-factor (no NADPH)): 82.5%
Remaining, % (T=60min) [5]: 3.6%
Remaining, % (NCF=60min) ([7]; mouse liver microsomes, no co-factor (no NADPH)): 91.3%
Remaining, % (T=60min) ([7]; mouse, liver microsomes): 2.3%

COc1ccc(/C=C/c2cc[n+]([Os-4]34([Cl])([n+]5ccccc5-c5cccc[n+]53)[n+]3ccccc3-c3cccc[n+]34)cn2)c(OC)c1.[Cl-] [[Os(bpy)2(2)Cl]Cl]
CLint(mic) [8]: < 9.6 µL/min/mg
T1/2 [8]: > 145 min
Remaining, % (NCF=60min) ([8]; 1 h): 107%
Remaining, % (T=60min) ([8]; 1 h): 78.4%
CLint(mic) [9]: 16.9 µL/min/mg
T1/2 [9]: 81.9 min
Remaining, % (NCF=60min) ([9]; 1 h): 91.8%
Remaining, % (T=60min) ([9]; 1 h): 56.5%
CLint(mic) [10]: < 9.6 µL/min/mg
T1/2 [10]: > 145 min
Remaining, % (NCF=60min) ([10]; 1 h): 75.9%
Remaining, % (T=60min) ([10]; 1 h): 71.8%

Cc1ccncc1 [methyl pyridine]
pKa [11]: 5.9

Cc1ccncn1 [methyl pyrimidine]
pKa [11]: 2.0
